# In patent US12434076B2, “Low energy immune priming for treating cancer and metastasis” (priority 2017, dated 2025):
# How the values were obtained:
# RM1 tumor = RM1 tumor growth in C57Bl/6 mice (LOFU, 17AAG); assay type: in vivo, mouse; conditions: for tumor volume: intraperitoneal, three times a week, untreated tumor 1879±98.65 mm^3
# Procedure: (§1) This protocol yielded an approximate in situ spatial-peak temporal-average acoustic intensity of 270 W/cm^2, resulting in estimated average infra-tumoral temperature elevation of 3.2° C. Post-treatment, there were no signs of normal tissue toxicity such as alopecia, thermal damage, or skin wounds. […] Control mice were injected with equal volume of the vehicle DMSO, which was used to solubilize 17AAG.
# (§2) Tumor model and treatment; C57Bl/6 and BalbC nu/nu mice were injected subcutaneously with 1×10^5 RM-1 (murine prostate cancer cell line) and 1×10^6 PC3 (human prostate cancer cell line) cells on the flank, respectively. Approximately 10 days later, the tumor became palpable (3-5 mm in diameter), whereupon LOFU treatment was initiated. […] Palpable tumors were treated with LOFU every 3-4 days for five fractions administered over two weeks. Animals received 17AAG three times a week during this time. Tumor volume measurements were performed twice weekly using Vernier calipers along with simultaneous physical assessment of signs of systemic toxicity (malaise and diarrhea).
# [1] = Toxicity and dose finding of 17AAG in mice; assay type: in vivo, mouse
# Procedure: as §1
# Thus, these dose levels were selected for the current study. The goal was to combine two therapies that are nontoxic, albeit subtherapeutic, and examine whether the combination can be therapeutic. […] To detect the level of ER stress, the expression levels of ER chaperones, ERp44, ERp57, and ERp72 were quantitated among different treatment groups. ERp44 is responsible for oxidative protein folding. ERp57 is an ER resident thiol disulfide oxidoreductase while Erp72 is a disulfide isomerase. All these proteins participate in the protein folding machinery of the ER.
# as §2
# Kaplan-Meier Survival analysis: Mice survival/mortality in different treatment groups was analyzed by Kaplan-Meier as a function of radiation dose using Sigma-Plot and GraphPad Prism (version 4.0 for OS X, San Diego, CA, USA) software.
# [2] = system: human hepatocellular carcinoma cell lines (HepG2, Hep3B, Huh7); assay: Cell growth and cell death of human HCC cell lines (LOFU, WP1066); assay type: cell-based; conditions: WP1066 added prior LOFU treatment
# TPSA23 tumor cells = assay: Clonogenic assay, TPSA23; assay type: cell-based, murine
smiles,measurement,setting,value
"C=CCNC1=C2C[C@@H](C)C[C@H](OC)[C@H](O)[C@@H](C)/C=C(\C)[C@H](OC(N)=O)[C@@H](OC)/C=C\C=C(/C)C(=O)NC(=CC1=O)C2=O [17AAG, 17-N-allylamino-17-demethoxygeldanamycinan]",average estimated tumor growth slower compared to control group,RM1 tumor; 17AAG 25 mg/kg body weight,9%
same,interval within which all animals achieved tumor size 2000 mm^3,RM1 tumor; 17AAG 25 mg/kg body weight,26 to 30 days
same,tumor volume,RM1 tumor; 17AAG 50 mg/kg b.w.,964 mm3
same,tumor volume,RM1 tumor; 17AAG 75 mg/kg b.w.,485±24.25 mm3
same,death of mice (Kaplan Meier survival analysis),"[1]; 75 mg/kg of body weight, after 21 days of treatment, C57Bl/6 mice",50%
same,low dose found to be nontoxic,[1]; Balb/c nude mice,14 mg/kg
same,low dose found to be nontoxic,[1]; C57Bl/6 mice,25 mg/kg
same,normal tissue toxic effect,[1]; low dose 17AAG 25 mg/kg body weight,did not show any normal tissue toxic effect
C[C@H](NC(=O)/C(C#N)=C/c1cccc(Br)n1)c1ccccc1 [WP1066],inducing cell death,[2],superior effect on inducing cell death
CNC(=O)c1ccc(N2C(=S)N(c3cnc(C#N)c(C(F)(F)F)c3)C(=O)C23CCC3)cc1F [apalutamide],clonogenicity (colonies),"TPSA23 tumor cells; 5 μM apalutamide in combination with LOFU, vs apalutamide or LOFU alone",significantly fewer colonies
same,clonogenicity,TPSA23 tumor cells; 10 μM apalutamide alone,significant reduction in clonogenicity
same,clonogenicity,TPSA23 tumor cells; 10 μM apalutamide in combination with LOFU,still more effective
